The subject of data set [1] is Streptococcus pnemoniae ATCC 49619. As to the kind of experiment: Antibacterial susceptibility testing, broth dilution method (CLSI). The data set is classed as cell-based. On the procedure: (§1) Testing was performed using broth dilution method according to Clinical and Laboratory Standards Institute (CLSI) guidelines M100-S23/S24; M07-A9, the disclosure of which is herein incorporated by reference.
(§2) The antibiotic activity of eight aqueous pharmaceutical compositions was determined and compared to the activity of the injectable reference finished product, Vancocin, manufactured by Flynn Pharma Ltd. Antibiotic activity was determined against quality control strains: Staphylococcus aureus ATCC 29213, Enterococcus faecalis ATCC 29212 and Streptococcus pnemoniae ATCC 49619.
On the technique in general: Broth dilution looks for growth in wells or tubes with falling amounts of substance.

For data set [2], the system named is Staphylococcus aureus ATCC 29213. The description is as above. Type of data set: cell-based. The conditions noted are these: ATCC29213, Table 6, solutions stored at 25 degrees Celsius for the test period in days indicated. Here is the method:
as §1, §2

Data set [3] deals with Enterococcus faecalis ATCC 29212. The description is as above. The data set is classed as cell-based. The conditions noted are these: ATCC29212, Table 6, solutions stored at 25 degrees Celsius for the test period in days indicated. Here is the method:
as §1, §2

For data set [4] the following is noted: cited from earlier work.
Setting [5] is: multiple dosing of 500 mg Vancomycin infused over 30 minutes.

In brackets after ≈: the same amount, converted by molar mass. Read-outs that look alike come from different tables or passages of the source.

As to `CC1(C)S[C@@H]2[C@H](NC(=O)[C@H](N)c3ccc(O)cc3)C(=O)N2[C@H]1C(=O)O` [Amoxicillin USP standard, Amoxicillin], the MIC in data set [1] (Table 6, solutions stored at 25 degrees Celsius for the test period in days indicated, read-out: Streptococcus pneumoniae MIC) is 0.06 µg/mL (≈ 0.164 µM); in data set [2], 1 µg/mL (≈ 2.74 µM); in data set [3], 0.5 µg/mL (≈ 1.37 µM).

For the compound `CN[C@H](CC(C)C)C(=O)N[C@H]1C(=O)N[C@@H](CC(N)=O)C(=O)N[C@H]2C(=O)N[C@H]3C(=O)N[C@H](C(=O)N[C@H](C(=O)O)c4cc(O)cc(O)c4-c4cc3ccc4O)[C@H](O)c3ccc(c(Cl)c3)Oc3cc2cc(c3O[C@@H]2O[C@H](CO)[C@@H](O)[C@H](O)[C@H]2O[C@H]2C[C@](C)(N)[C@H](O)[C@H](C)O2)Oc2ccc(cc2Cl)[C@H]1O` [Vancomycin USP standard, Vancomycin], the MIC in data set [1] (read-out: Streptococcus pneumoniae MIC (μg/mL)) is 0.125 µg/mL (≈ 0.0863 µM).

Consider `CN[C@H](CC(C)C)C(=O)N[C@H]1C(=O)N[C@@H](CC(N)=O)C(=O)N[C@H]2C(=O)N[C@H]3C(=O)N[C@H](C(=O)N[C@@H](C(=O)O)c4cc(O)cc(O)c4-c4cc3ccc4O)[C@H](O)c3ccc(c(Cl)c3)Oc3cc2cc(c3O[C@@H]2O[C@@H](CO)[C@@H](O)[C@H](O)[C@@H]2O[C@@H]2C[C@](C)(N)[C@H](O)[C@@H](C)O2)Oc2ccc(cc2Cl)[C@H]1O` [Vancomycin], for which the “mean plasma concentration immediately after infusion” value in data set [4] (intravenous infusion of 1 gram Vancomycin (15 mg/kg) over 60 minutes) is 63 micrograms/mL. In addition, in data set [4] (setting [5]), the “mean plasma concentration at the completion of infusion” value is given as “about 49 microgram/mL”, the “mean plasma concentration six hours after infusion” value is given as “about 10 microgram/mL” and the “mean plasma concentration two hours after infusion” value is listed as “about 19 microgram/mL”.

Values taken from patent US10849956B2, “Glycopeptide compositions” (priority 2014, dated 2020).
